Data published in patent EP2292587A1, “PHARMACEUTICAL COMPOSITION FOR INHIBITING THE TRANSCRIPTION FACTOR INDUCIBLE BY HYPOXIA, MODULATORS OF PATHOLOGICAL PROCESSES OF ANGIOGENESIS, ONCOGENESIS, INFLAMMATION, APOPTOSIS, AND CELLULAR THERAPY” (Fundacion De La Comunidad Valenciana Centro De …, priority 2008, dated 2009).

Assays:
[1] = test system: PHD3 and VEGF; test: qPCR of PHD3 and VEGF in primary culture of epNSCs; type: cell-based, rat; conditions: 500 nM, hypoxia (1% O2), 6 to 24 hours
Source text: Adult Wistar rats of between 2 to 3 months of age were used (the animals were handled following the mode of action which complies with section 2.1 (acceptable methods of euthanasia) of the document prepared for the DGXI of the European Commission regarding the protection of animals used for experimentation and other scientific purposes (No. L358, ISSN 0378-6978) and after the approval of the protocols by the Committee for Animal Care and Wellbeing of the Centro de Investigación Principe Felipe, Valencia, SPAIN). Once the animals were sacrificed, the dorsal part of the spinal cord was dissected and the tissue was maintained, at 4°C, in washing medium (DPBS-glucose) for its processing. To reduce the percentage of connective tissue cells the meninges as well as the most superficial blood vessels were removed. […]
Total RNA was isolated using the commercial kit RNAeasy (Qiagen) and following the manufacturer's instructions. […] The quantitative polymerase chain reaction (qPCR) was carried out using Taqman probes and primers designed by Applied Biosystem for rVEGF (Ref Rn00582935_m1), rPHD3 (Ref Rn00571341_m1) and rGAPDH (Ref Rn01775763_g1). […] The expression levels of VEGF and PHD3 were expressed as the increase of Ct with respect to the expression levels of GAPDH (constitutive expression gene): Ct (ΔCt)=Ct (VEGF or PHD3)-Ct (GAPDH). […]

[2] = test system: medaka (Oryzias latipes) embryos; test: toxicity on medaka embryos; type: in vivo
Procedure: In the first place, for the zebrafish embryos, various experiments were performed with 10, 6 and 4 embryos per well in a volume of 100 microl, in early (between 1 and 8) and late (more than 20) stages of 1 x Yamamoto buffer, culturing the embryos at 26°C for 24 hours, and the compound FM19G11 was subsequently added at concentrations of 10 microM and 50 microM with negative controls without additives to analyze the endogenous mortality of the embryos and with 1% and 5% DMSO (solvent of the compound) to analyze the mortality of the solvent. In all the cases the solvent induced a high lethality between 60% and 90%.
The same experiments were performed using medaka embryos for which DMSO has not lethal effects at concentrations less than 5%. Six embryos per well, a final volume of 100 µl and independent experiments with embryos in blastula and neurula stages were used.
To prevent the possibility that FM19G11 may not be traversing the protective layer of the embryo (chorion), the compound at a concentration of 0.5 mM was microinjected into the chorionic space (between the embryo and the chorion). Experiment 1: n=15, 20% induced mortality, DMSO control = 0%. The result was the same, no anomaly being observed in the development of the embryo, nor any effect on the viability of the injected embryos. The images of Figure 19 show medaka embryos subjected to the treatment with FM19G11 at 50 microM for 4 days (A) 10 medaka embryos in a well of a multi-well plate; B and C, photos of embryos treated with 50 microM FM19G11 for 1 day; and D a photo of a medaka embryo which was not treated with the compound.

[3] = test system: histone deacetylase (HDAC); test: HDAC Fluorimetric Cellular Activity Assay, HeLa cell extracts; type: cell-based; conditions: different concentrations
Procedure: Since FM19G11 was capable of affecting the degree of acetylation of histone H3 and therefore the conformation of chromatin, it was evaluated if FM19G11 favored the transfer of acetyl groups to histone H3 or, on the contrary, prevented histone H3 from being deacetylated. Both effects would cause an increase of the degree of acetylation of histone H3. Immunoprecipitation assays were performed with an antibody recognizing acetyltransferase p300 and then assays for measuring the acetyltransferase activity by means of using the kit "HAT Colorimetric Assay" (BioVision) were carried out. This method consists of detecting NADH since peptide acetylation causes the release of the free form of Coenzyme A, which serves as an essential coenzyme for producing NADH.
The protein extracts were previously immunoprecipitated with an anti-p300 antibody and the acetyltransferase activity measured by the detection of NADH. The evaluation of the histone deacetylase (HDAC) activity (Figure 34 B) was carried out with protein extracts of HeLa cells treated with different concentrations of FM19G11. As a positive control, a fixed concentration of TSA (1 µM) was included and extracts of untreated cells were used as a control. The experiments were carried out following the instructions of the Biomol kit for detecting histone deacetylase activity (HDAC Fluorimetric Cellular Activity Assay, Biomol, Cat. No. AK-503). […]

Compound: Cc1ccc(C(=O)COC(=O)c2cccc(NC(=O)c3ccc([N+](=O)[O-])cc3[N+](=O)[O-])c2)cc1 [FM19G11, 2-oxo-2-(p-tolyl)ethyl 3-((2,4-dinitro)benzamido)benzoate]
- increase of both PHD3 and VEGF (mRNA) [1]: significantly inhibited
- induced mortality ([2]; 0.5 mM microinjected into the chorionic space, n=15): 20%
- viability of the embryos ([2]; 10 microM and 50 microM in the well): does not affect the viability
- lethality ([2]; 10 microM and 50 microM in the well, blastula and neurula stages): no significant lethality
- activity as a histone deacetylase inhibitor [3]: did not show activity
